# Assay results: patent publication US20140221207A1, “ISOLATED BACTERIAL STRAIN OF THE GENUS BURKHOLDERIA AND PESTICIDAL METABOLITES THEREFROM- FORMULATIONS AND USES” (MARRONE BIO INNOVATIONS, INC., priority 2011, published 2014)
# “And” between values parts separate entries of the source, which are not always exact repeats. Equal values may be shown once. Read-outs that look alike come from different tables or passages of the source.
# Experiments:
# Burkholderia A396 = format: cell-based, Burkholderia sp. A396; conditions: 72-hour incubation at 25° C
# Procedure: Antibiotic susceptibility of Burkholderia A396 is tested using antibiotic disks on Muller-Hinton medium as described in PML Microbiological's technical data sheet #535.
# [1] = tested on: Chlamydomonas reinhardtii; test: Control of Chlamydomonas reinhardtii by purified compounds, fluorescence at 680 nm; format: cell-based; conditions: 72 hours
# Procedure: Purified compounds from Burkholderia sp. fermentation broth was tested for algaicidal activity against Chlamydomonas reinhardtii. An increasing volume of the purified compounds (20 mg/mL in ethanol) was added to a clear 48 well polystyrene plate with 750 micro liters of the specified algae growing. Each treatment was done in two replicates and the solvent used as a negative control. The plate was closed with a lid and incubated for 72 hours under constant light at room temperature. After 72 hours the fluorescence (at 680 nm) of the suspension in each well was measured using a SpectraMax M2 plate reader, and the reduction in fluorescence compared with the negative control was converted into percent control of algal growth. Each sample was visually compared to the negative control; a well that was visually clearer than the negative control was scored as active. […] Tests were run in two replicates and %. Control was calculated as a reduction of fluorescence at 680 nm compared with the negative control. Each sample was visually compared to the negative control; a well that was visually clearer than the negative control was scored as active.
# Lygus hesperus = test: 12 well plate treated green beans bioassay, Lygus hesperus late 2nd/early 3rd instar; format: in vivo; conditions: green beans dipped in 0.25 mg/mL, scored at 24, 48 and 120 hours
# Procedure: The insecticidal activity of the four compounds, templamide A, templamide B, FR901465 & FR901228 isolated from Burkholderia were tested in a laboratory assay using a 12 well plate with treated green beans bioassay system. The compound was dissolved in 100% ethanol to concentrations of […] and 500 μL of this sample was added to 3.5 mL of water to make a total volume of 4 mL containing 0.25 mg/mL concentration of the compound. Green beans were washed earlier in bleach solution and then sat in water to rinse. Beans were dried before using and then were cut with scissors to fit into wells of 12-well plate. With the help of forceps the beans were dunked into a 15 mL plastic falcon tube containing each treatment and then submerged in treatment for exactly one min. one bean part was put into each well and then individual late 2nd/early 3rd instar Lygus hesperus, were placed in wells with help of brush. Plate sealer was used to cover tray and hole poked into the plate sealer for aeration. The numbers of Lygus/well were counted and plates were placed on brench top. Larvae were scored at 24, 48 and 120 hours after application. […] The positive control used in this testing was Avid (Avemectin) at the rate of 13 μL/10 mL.
# [2] = tested on: Two Spotted Spidermite (TSM); test: Control of two spotted spidermite (TSM) in strawberry, field data; format: in vivo; conditions: 6 oz./acre
# Procedure: The efficacies of five traditional chemistry-derived and MBI 206 were evaluated for TSM control under field conditions. ‘Strawberry Festival’ transplants were set in the field in plastic mulched beds, 13 inches high and 27 inches across the top, and with 4 ft bed spacing. Overhead irrigation was applied for 10 days after setting to aid in establishment of the transplants. Trickle irrigation was used for the remainder of the experiment. Each 12.5-ft. plot consisted of 20 plants in two ten-plant rows per bed. Plots were infested from a laboratory colony in four sessions with 10 to 20 motile TSM, per plant. Each session accomplished the infestation of one block of the experiment. The experiment consisted of treatments of various rates and schedules of application of miticides, some combined with an adjuvant, and a non-treated check. Treatments were replicated four times in a RCB design. Savey and Acramite treatments were applied before TSM densities reached threshold levels (6 January); the remainder of the treatment programs began 2 wks later. Treatments were applied using a hand-held sprayer with a spray wand outfitted with a nozzle containing a 45-degree core and a number four disc.
# The sprayer was pressurized by CO2, to 40 psi, and calibrated to deliver 100 gal per acre. Pre-treatment samples were taken on Day 1 and sampling continued weekly through 2 wks after the last application of treatments. Samples consisted of ten randomly selected leaflets per plot and were collected from the middle one-third stratum of the plants. Samples were transported to the laboratory where motile and egg TSM were brushed from the leaflets onto rotating sticky discs and counted on 1/10 of the disc surface to estimate average numbers per leaflet. Distinctions could not be made between viable and non-viable eggs, thus total eggs were recorded.
# B. cepacia complex = conditions: 2,621 strains in B. cepacia complex; cited from earlier work
# [3] = 5 μL of sample (20 mg/mL in ethanol) per 750 μL of algae
# [4] = 5 μL of sample per 750 μL of algae
# [5] = 11 μL of sample (20 mg/mL in ethanol) per 750 μL of algae
# [6] = 11 μL of sample per 750 μL of algae
# [7] = 22.5 μL of sample (20 mg/mL in ethanol) per 750 μL of algae
# [8] = 22.5 μL of sample per 750 μL of algae, well visually clearer than negative control scored as active
compound,measurement,setting,value
CN(C)[C@@H]1C(O)=C(C(N)=O)C(=O)[C@@]2(O)C(O)=C3C(=O)c4c(O)cccc4[C@@](C)(O)[C@H]3C[C@@H]12 [Tetracycline],Susceptible,Burkholderia A396; disk 30 μg,−
CCC(=O)OC(C)/C=C\C(=O)NC1CC(C)C(C/C=C(C)/C=C/C2OC(C)(O)C(O)C3(CO3)C2O)OC1C (centres unmarked) [Templamide B],% Control,[1]; [3],95.05%
same,Visual,[1]; [4],Active
same,% Control,[1]; [5],99.34%
same,Visual,[1]; [6],Active
same,% Control,[1]; [7],98.3%
same,Visual,[1]; [8],Active
same,mortality at 250 µg/mL,Lygus hesperus; Lygus hesperus,69.2%
C[C@@H]1[C@@H](c2ccc(Cl)cc2)SC(=O)N1C(=O)NC1CCCCC1 [hexythiazox],No. egg TSM/leaflet,[2]; Day 1 (pre-treatment sample),2
same,No. egg TSM/leaflet,[2]; Day 9,8.5
same,No. egg TSM/leaflet,[2]; Day 16,15
same,No. egg TSM/leaflet,[2]; Day 22,17
same,No. egg TSM/leaflet,[2]; Day 30,22
same,No. egg TSM/leaflet,[2]; Day 37,71.5
same,No. egg TSM/leaflet,[2]; Day 44,128.5
same,No. egg TSM/leaflet,[2]; Day 52,281.5
same,No. egg TSM/leaflet,[2]; Day 58,393.5
CC[C@H]1OC(=O)[C@H](C)[C@@H](O[C@H]2C[C@@](C)(OC)[C@@H](O)[C@H](C)O2)[C@H](C)[C@@H](O[C@@H]2O[C@H](C)C[C@H](N(C)C)[C@H]2O)[C@](C)(O)C[C@@H](C)C(=O)[C@H](C)[C@@H](O)[C@]1(C)O [Erythromycin],Susceptible,Burkholderia A396; disk 15 μg,−
[H]/N=C(/N)N[C@H]1[C@H](O)[C@@H](O)[C@H](O[C@@H]2O[C@@H](C)[C@](O)(C=O)[C@H]2O[C@@H]2O[C@@H](CO)[C@H](O)[C@@H](O)[C@@H]2NC)[C@@H](N/C(N)=N\[H])[C@@H]1O [Streptomycin],Susceptible,Burkholderia A396; disk 10 μg,−
CC1(C)S[C@@H]2[C@H](NC(=O)[C@H](N)c3ccccc3)C(=O)N2[C@H]1C(=O)O [Ampicillin],Susceptible,Burkholderia A396; disk 10 μg,−
O=C(O)c1cn(C2CC2)c2cc(N3CCNCC3)c(F)cc2c1=O [Ciprofloxacin],Susceptible,Burkholderia A396; disk 5 μg,++
same,share of strains susceptible,B. cepacia complex,5%
CN(C)[C@@H]1C(O)=C(C(N)=O)C(=O)[C@@]2(O)C(O)=C3C(=O)c4c(O)cccc4[C@@](C)(O)[C@H]3[C@H](O)[C@@H]12 [Oxytetracycline],Susceptible,Burkholderia A396; disk 30 μg,−
Penicillin,Susceptible,Burkholderia A396; disk 10 μg,−
CO/N=C(\C(=O)N[C@@H]1C(=O)N2C(C(=O)O)=C(COC(N)=O)CS[C@H]12)c1ccco1 [Cefuroxime],Susceptible,Burkholderia A396; disk 30 μg,−
NC[C@H]1O[C@H](O[C@H]2[C@H](O)[C@@H](O[C@H]3O[C@H](CO)[C@@H](O)[C@H](N)[C@H]3O)[C@H](N)C[C@@H]2N)[C@H](O)[C@@H](O)[C@@H]1O [Kanamycin],Susceptible,Burkholderia A396; disk 30 μg,+++
CCN1CCN(C(=O)N[C@@H](C(=O)N[C@@H]2C(=O)N3[C@@H]2SC(C)(C)[C@@H]3C(=O)O)c2ccccc2)C(=O)C1=O [Piperacillin],Susceptible,Burkholderia A396; disk 100 μg,+++
CCC(=O)OC(C)/C=C\C(=O)NC1CC(C)C(C/C=C(C)/C=C/C2OC(C)(O)C(O)C(O)(CO)C2O)OC1C (centres unmarked) [Templamide A],% Control,[1]; [3],−67.61%
same,Visual,[1]; [4],Not Active
same,% Control,[1]; [5],−21.16%
same,Visual,[1]; [6],Not Active
same,% Control,[1]; [7],−151.6%
same,Visual,[1]; [8],Not Active
same,mortality,Lygus hesperus,inactive
Gentamicin,Susceptible,Burkholderia A396; disk 10 μg,−
O=C(N[C@H](CO)[C@H](O)c1ccc([N+](=O)[O-])cc1)C(Cl)Cl [Chloramphenicol],Susceptible,Burkholderia A396; disk 30 μg,++
same,share of strains susceptible,B. cepacia complex,15%
C[C@@H](O)[C@H]1C(=O)N2C(C(=O)O)=C(SCCN=CN)C[C@H]12 [Imipenem],Susceptible,Burkholderia A396; disk 10 μg,+++
"COC(=O)c1nc(CC(C)C)oc1-c1c[nH]c2ccccc12 [Templazole A, templazole A]",% Control,[1]; [3],99.18% and 98.69%
same,Visual,[1]; [4],Active
same,% Control,[1]; [5],98.73% and 98.31%
same,Visual,[1]; [6],Active
same,% Control,[1]; [7],98.15% and 95.71%
same,Visual,[1]; [8],Active
templazole B,% Control,[1]; [3],−102.1%
same,Visual,[1]; [4],Not Active
same,% Control,[1]; [5],52.95%
same,Visual,[1]; [6],Not Active
same,% Control,[1]; [7],−30.79%
same,Visual,[1]; [8],Not Active
